Reference: ChEMBL document CHEMBL1127153, “Synthesis and anti-arthritic activity of a series of 1-aryl-3-dimethylamino-1,4-dihydroisoquinolines” (1993)

How the values were obtained:
Assay type in all cases: functional
Rattus norvegicus [1] = experiment: The compound was examined for cell accumulation in the rat by Arthus reaction after peroral administration at 50 mg/Kg, activity expressed as percent inhibition.; settings: po
Rattus norvegicus [2] = experiment: The compound was examined for cell accumulation in the rat by Arthus reaction after peroral administration at 25 mg/Kg, activity expressed as percent inhibition.; settings: po
Rattus norvegicus [3] = experiment: The compound was examined for cell accumulation in the rat by Arthus reaction after peroral administration at 12.5mg/Kg, activity expressed as percent inhibition.; settings: po
Rattus norvegicus [4] = experiment: Antiarthritic activity against rat adjuvant model after peroral administration of 25 mg/Kg of compound, activity expressed as %maximum inhibitory effect on injected paw depth
Rattus norvegicus [5] = experiment: Antiarthritic activity against rat adjuvant model after peroral administration of 25 mg/Kg of compound, activity expressed as %maximum inhibitory effect on arthritis score.
Rattus norvegicus [6] = experiment: The compound was examined for cell accumulation in the rat by polyvinyl sponge model after peroral administration at 10 mg/Kg, activity expressed as percent inhibition.; settings: po
Rattus norvegicus [7] = experiment: The compound was examined for cell accumulation in the rat by pleural exudate model after peroral administration at 12 mg/Kg, activity expressed as percent inhibition.; settings: po
Rattus norvegicus [8] = experiment: The compound was examined for cell accumulation in the rat by polyvinyl sponge model after peroral administration at 25 mg/Kg, activity expressed as percent inhibition.; settings: po
Rattus norvegicus [9] = experiment: Antiarthritic activity against rat adjuvant model after peroral administration of 12.5 mg/Kg of compound, activity expressed as %maximum inhibitory effect on injected paw depth
Rattus norvegicus [10] = experiment: Antiarthritic activity against rat adjuvant model after peroral administration of 12.5 mg/Kg of compound, activity expressed as %maximum inhibitory effect on arthritis score.
Rattus norvegicus [11] = experiment: The compound was examined for cell accumulation in the rat by pleural exudate model after peroral administration at 25 mg/Kg, activity expressed as percent inhibition.; settings: po
Rattus norvegicus [12] = experiment: Antiarthritic activity against rat adjuvant model after peroral administration of 25 mg/Kg of compound: activity expressed as %maximum inhibitory effect on arthritis score.
Rattus norvegicus [13] = experiment: Antiarthritic activity against rat adjuvant model after peroral administration of 12.5 mg/Kg of compound: activity expressed as %maximum inhibitory effect on arthritis score.
Rattus norvegicus [14] = experiment: The compound was examined for cell accumulation in the rat by pleural exudate model after peroral administration at 12.5 mg/Kg, activity expressed as percent inhibition.; settings: po
Rattus norvegicus [15] = experiment: The compound was examined for cell accumulation in the rat by pleural exudate model after peroral administration at 6 mg/Kg, activity expressed as percent inhibition.; settings: po
Rattus norvegicus [16] = experiment: Antiarthritic activity against rat adjuvant model after peroral administration of 5 mg/Kg of compound, activity expressed as %maximum inhibitory effect on injected paw depth
Rattus norvegicus [17] = experiment: The compound was examined for cell accumulation in the rat by polyvinyl sponge model after peroral administration at 12.5 mg/Kg, activity expressed as percent inhibition.; settings: po
Rattus norvegicus [18] = experiment: The compound was examined for cell accumulation in the rat by pleural exudate model after oral administration at 25 mg/Kg, activity expressed as percent inhibition.
Rattus norvegicus [19] = experiment: Antiarthritic activity against rat adjuvant model after peroral administration of 5 mg/Kg of compound, activity expressed as %maximum inhibitory effect on arthritis score.
Rattus norvegicus [20] = experiment: The compound was examined for cell accumulation in the rat by pleural exudate model after peroral administration at 3 mg/Kg, activity expressed as percent inhibition.; settings: po
Rattus norvegicus [21] = experiment: The compound was examined for cell accumulation in the rat by Arthus reaction after peroral administration at 6.25 mg/Kg, activity expressed as percent inhibition.; settings: po
Rattus norvegicus [22] = experiment: The compound was examined for cell accumulation in the rat by polyvinyl sponge model after peroral administration at 5 mg/Kg, activity expressed as percent inhibition.; settings: po
Rattus norvegicus [23] = experiment: Antiarthritic activity against rat adjuvant model after peroral administration of 10 mg/Kg of compound, activity expressed as %maximum inhibitory effect on injected paw depth
Rattus norvegicus [24] = experiment: Antiarthritic activity against rat adjuvant model after peroral administration of 10 mg/Kg of compound, activity expressed as %maximum inhibitory effect on arthritis score.
Rattus norvegicus [25] = experiment: The compound was examined for cell accumulation in the rat by Arthus reaction after peroral administration at 12.5 mg/Kg, activity expressed as percent inhibition.; settings: po
Rattus norvegicus [26] = experiment: Antiarthritic activity against rat adjuvant model after peroral administration of 6 mg/Kg of compound, activity expressed as %maximum inhibitory effect on arthritis score.
Rattus norvegicus [27] = experiment: Antiarthritic activity against rat adjuvant model after peroral administration of 6 mg/kg of compound, activity expressed as %maximum inhibitory effect on injected paw depth; settings: route oral
Rattus norvegicus [28] = experiment: Antiarthritic activity against rat adjuvant model after intravenous administration of 25 mg/Kg of compound, activity expressed as %maximum inhibitory effect on arthritis score.
Rattus norvegicus [29] = experiment: Antiarthritic activity against rat adjuvant model after peroral administration of 50 mg/Kg of compound, activity expressed as %maximum inhibitory effect on injected paw depth
Rattus norvegicus [30] = experiment: Antiarthritic activity against rat adjuvant model after intravenous administration of 50 mg/Kg of compound, activity expressed as %maximum inhibitory effect on arthritis score.
Rattus norvegicus [31] = experiment: Antiarthritic activity against rat adjuvant model after intravenous administration of 25 mg/Kg of compound, activity expressed as %maximum inhibitory effect on injected paw depth

Compound CN(C)C1=NC(c2ccccc2F)c2ccccc2C1.Cl (stereo not drawn) has an inhibition in vivo at 50 mg/kg (Rattus norvegicus [1]) of 55%, an inhibition in vivo at 25 mg/kg (Rattus norvegicus [2]) of 44% and an inhibition in vivo at 12.5 mg/kg (Rattus norvegicus [3]) of 28%. For the same compound, the Max inhibitory effect (Rattus norvegicus [4]) was 13%, the Max inhibitory effect (Rattus norvegicus [5]) was 37% and the inhibition in vivo at 10 mg/kg (Rattus norvegicus [6]) was 12%. It also gave an inhibition in vivo at 12 mg/kg (Rattus norvegicus [7]) of 33% and an inhibition in vivo at 25 mg/kg (Rattus norvegicus [8]) of 24%.
In the case of Cl.Clc1ccc(C2N=C(N3CCOCC3)Cc3ccccc32)cc1 (stereo not drawn), the Max inhibitory effect (Rattus norvegicus [4]) is reported as 7% and the Max inhibitory effect (Rattus norvegicus [5]) is reported as 5%.
Compound Cl.NC1=NC(c2ccc(Cl)cc2)c2ccccc2C1 (stereo not drawn) has a Max inhibitory effect (Rattus norvegicus [4]) of 0% and a Max inhibitory effect (Rattus norvegicus [5]) of -3%.
CN(C)C1=NC(c2ccc([N+](=O)[O-])cc2)c2ccccc2C1.Cl (stereo not drawn) was tested, and the Max inhibitory effect (Rattus norvegicus [9]) was 33% and the Max inhibitory effect (Rattus norvegicus [10]) was 30%.
With CN(C)C1=NC(c2ccccc2Cl)c2ccccc2C1.Cl (stereo not drawn) the inhibition in vivo at 25 mg/kg (Rattus norvegicus [11]) was 48%, the inhibition in vivo at 50 mg/kg (Rattus norvegicus [1]) was 34% and the inhibition in vivo at 25 mg/kg (Rattus norvegicus [2]) was 19%. For the same compound, the Max inhibitory effect (Rattus norvegicus [12]) was 36%, the Max inhibitory effect (Rattus norvegicus [13]) was 10% and the Max inhibitory effect (Rattus norvegicus [9]) was 12%. The Max inhibitory effect (Rattus norvegicus [4]) was 30%, the inhibition in vivo at 12.5 mg/kg (Rattus norvegicus [14]) was 28% and the inhibition in vivo at 6 mg/kg (Rattus norvegicus [15]) was 27%. For the same compound, the inhibition in vivo at 25 mg/kg (Rattus norvegicus [8]) was 19%.
For CN(C)C1=NC(c2ccccc2)c2ccccc2C1.Cl (stereo not drawn), the Max inhibitory effect (Rattus norvegicus [4]) was -6% and the Max inhibitory effect (Rattus norvegicus [5]) was 13%.
In the case of CN(C)C1=NC(c2ccc(Cl)cc2)c2ccccc2C1.Cl (stereo not drawn), the Max inhibitory effect (Rattus norvegicus [16]) is reported as 30%, the Max inhibitory effect (Rattus norvegicus [9]) is reported as 80% and the inhibition in vivo at 12.5 mg/kg (Rattus norvegicus [17]) is reported as 15%. The inhibition in vivo at 25 mg/kg (Rattus norvegicus [18]) was 28%, the Max inhibitory effect (Rattus norvegicus [19]) was 18% and the inhibition in vivo at 12.5 mg/kg (Rattus norvegicus [14]) was 21%. The inhibition in vivo at 6 mg/kg (Rattus norvegicus [15]) was 19%, the Max inhibitory effect (Rattus norvegicus [10]) was 44% and the inhibition in vivo at 25 mg/kg (Rattus norvegicus [8]) was 30%.
For CN(C)C1=NC(c2cccc(Cl)c2)c2ccccc2C1.Cl (stereo not drawn), the inhibition in vivo at 50 mg/kg (Rattus norvegicus [1]) was 42%, the inhibition in vivo at 3 mg/kg (Rattus norvegicus [20]) was 36% and the inhibition in vivo at 25 mg/kg (Rattus norvegicus [2]) was 29%. The inhibition in vivo at 6.25 mg/kg (Rattus norvegicus [21]) was 31%, the inhibition in vivo at 5 mg/kg (Rattus norvegicus [22]) was 8% and the Max inhibitory effect (Rattus norvegicus [4]) was 84%. It also gave a Max inhibitory effect (Rattus norvegicus [23]) of 32%, a Max inhibitory effect (Rattus norvegicus [5]) of 53% and an inhibition in vivo at 10 mg/kg (Rattus norvegicus [6]) of 35%. For the same compound, the Max inhibitory effect (Rattus norvegicus [24]) was 29%, the inhibition in vivo at 12.5 mg/kg (Rattus norvegicus [14]) was 41% and the inhibition in vivo at 6 mg/kg (Rattus norvegicus [15]) was 41%. It also gave an inhibition in vivo at 12.5 mg/kg (Rattus norvegicus [25]) of 30%.
In the case of Cl.Clc1ccc(C2N=C(NCc3ccccc3)Cc3ccccc32)cc1 (stereo not drawn), the Max inhibitory effect (Rattus norvegicus [4]) is reported as 10% and the Max inhibitory effect (Rattus norvegicus [5]) is reported as -7%.
Work on CN(C)C1=NC(c2ccc(Cl)cc2)c2cc(Cl)ccc2C1.Cl (stereo not drawn) yielded a Max inhibitory effect (Rattus norvegicus [4]) of 86%, a Max inhibitory effect (Rattus norvegicus [5]) of 54% and a Max inhibitory effect (Rattus norvegicus [26]) of 34%. For the same compound, the Max inhibitory effect (Rattus norvegicus [27]) was 36%.
For COc1ccc2c(c1)CC(N(C)C)=NC2c1ccc(Cl)cc1.Cl (stereo not drawn), the Max inhibitory effect (Rattus norvegicus [4]) was 0% and the Max inhibitory effect (Rattus norvegicus [5]) was 11%.
With CN(C)C1=NC(c2ccc(N)cc2)c2ccccc2C1.Cl (stereo not drawn) the Max inhibitory effect (Rattus norvegicus [4]) was 6% and the Max inhibitory effect (Rattus norvegicus [5]) was 9%.
With CN(C)C1=NC(c2ccc(Cl)cc2Cl)c2ccccc2C1.Cl (stereo not drawn) the Max inhibitory effect (Rattus norvegicus [9]) was 44% and the Max inhibitory effect (Rattus norvegicus [10]) was 15%.
For Br.CN(C)C1=NC(c2ccc(Cl)cc2)c2ccc(O)cc2C1 (stereo not drawn), the inhibition in vivo at 25 mg/kg (Rattus norvegicus [11]) was 21%, the inhibition in vivo at 50 mg/kg (Rattus norvegicus [1]) was 18% and the Max inhibitory effect (Rattus norvegicus [28]) was 44%. It also gave a Max inhibitory effect (Rattus norvegicus [29]) of 5%, a Max inhibitory effect (Rattus norvegicus [30]) of 16% and a Max inhibitory effect (Rattus norvegicus [31]) of 46%.
For CN(C)C1=NC(c2ccc(Cl)cc2)c2ccccc2C1 (stereo not drawn), the Max inhibitory effect (Rattus norvegicus [4]) was -1% and the Max inhibitory effect (Rattus norvegicus [5]) was 29%.
